The record followed here is BindingDB's records for doi:10.1016/s0960-894x(99)00659-9 (Kyoto Pharmaceutical University, 2000).

Each structure is given as a SMILES string. Where only a bound is given, the exact number is not on record here.

The experiment can be described thus: Inhibitory activity against porcine pancreatic elastase (PPE).
With `O=C(CCc1cccc(Cl)c1Cl)N[C@@H](Cc1ccccc1)C(=O)CCl` [N-((S)-1-Benzyl-3-chloro-2-oxo-propyl)-3-(2,3-dichloro-phenyl)-propionamide], inhibition was half-maximal at 32 µM (IC50).
The same measure for `COc1ccccc1CCC(=O)N[C@@H](Cc1ccccc1)C(=O)CCl` [N-((S)-1-Benzyl-3-chloro-2-oxo-propyl)-3-(2-methoxy-phenyl)-propionamide]: 85 µM.
As for `O=C(CCc1cccc(F)c1)N[C@@H](Cc1ccccc1)C(=O)CCl` [N-((S)-1-Benzyl-3-chloro-2-oxo-propyl)-3-(3-fluoro-phenyl)-propionamide], the figure is 280 µM; as for `O=C(CCc1cccc(O)c1)N[C@@H](Cc1ccccc1)C(=O)CCl` [N-((S)-1-Benzyl-3-chloro-2-oxo-propyl)-3-(3-hydroxy-phenyl)-propionamide], over 1000 µM.
As for `COc1cccc(CCC(=O)N[C@@H](Cc2ccccc2)C(=O)CCl)c1` [N-((S)-1-Benzyl-3-chloro-2-oxo-propyl)-3-(3-methoxy-phenyl)-propionamide], the figure is 600 µM.
Compound `O=C(CCc1cccc(C(F)(F)F)c1)N[C@@H](Cc1ccccc1)C(=O)CCl` [N-((S)-1-Benzyl-3-chloro-2-oxo-propyl)-3-(3-trifluoromethyl-phenyl)-propionamide] showed a half-maximal inhibitory concentration (IC50) of 37 µM.
In the case of `O=C(CCc1ccc(F)cc1)N[C@@H](Cc1ccccc1)C(=O)CCl` [N-((S)-1-Benzyl-3-chloro-2-oxo-propyl)-3-(4-fluoro-phenyl)-propionamide], half-maximal inhibition (IC50) required 240 µM. This IC50 lies about 6.5-fold higher than the previous one.
As for `O=C(CCc1ccc(O)cc1)N[C@@H](Cc1ccccc1)C(=O)CCl` [N-((S)-1-Benzyl-3-chloro-2-oxo-propyl)-3-(4-hydroxy-phenyl)-propionamide], the figure is over 1000 µM; as for `CC(C)c1ccc(CCC(=O)N[C@@H](Cc2ccccc2)C(=O)CCl)cc1` [N-((S)-1-Benzyl-3-chloro-2-oxo-propyl)-3-(4-isopropyl-phenyl)-propionamide], 15 µM.
`O=C(CCc1ccc(C(F)(F)F)cc1)N[C@@H](Cc1ccccc1)C(=O)CCl` [N-((S)-1-Benzyl-3-chloro-2-oxo-propyl)-3-(4-trifluoromethyl-phenyl)-propionamide] had an IC50 of 13 µM.
As for `Cc1cccc(CCC(=O)N[C@@H](Cc2ccccc2)C(=O)CCl)c1` [N-((S)-1-Benzyl-3-chloro-2-oxo-propyl)-3-m-tolyl-propionamide], the figure is 130 µM; as for `Cc1ccc(CCC(=O)N[C@@H](Cc2ccccc2)C(=O)CCl)cc1` [N-((S)-1-Benzyl-3-chloro-2-oxo-propyl)-3-p-tolyl-propionamide], 90 µM; as for `O=C(/C=C/c1ccccc1)N[C@@H](Cc1ccccc1)C(=O)CCl` [N-((S)-1-Benzyl-3-chloro-2-oxo-propyl)-3-phenyl-acrylamide], 26 µM.
The same measure for `O=C(CCc1ccccc1)N[C@@H](Cc1ccccc1)C(=O)CCl` [N-((S)-1-Benzyl-3-chloro-2-oxo-propyl)-3-phenyl-propionamide]: 150 µM.

Broadly, the IC50 is the concentration at which inhibition is half-maximal. The low end stands for higher potency, the high end for lower potency.
